Measured values from US4659734A, “Olinecarboxylic acid derivatives” (Nippon Shinyaku Co., Ltd., priority 1983, dated 1987).
≈ marks a conversion by molar mass, not a printed value.

Experiments:
[1] = test system: Acimetobacter calcoaceticus; assay: Mouse intraperitoneal infection, survival after one week; type: in vivo, ddY strain mice; settings: po, 1 × 10^7 per mouse, one dose per os 2 h after infection
Experimental: (§1) ddY--Strain mice (male; body weight 20±1 grams) of SPF were innoculated with the bacteria set forth in Table 2 by administration of a supension of the bacterial in 4% mucin solution into the abdominal cavity. A compound of the invention was given one time per os two hours after the infection, and, from the survival rate after one week. 50% effective doses (ED50) were calculated by the Behrens-Karber method.

Escherichia coli KC-14 [2] = assay: as above; type: in vivo, ddY strain mice; settings: KC14, po; Escherichia coli KC-14, 5 × 10^4 per mouse; one dose per os 2 h after infection
Experimental: as §1

[3] = test system: Klebsiella pneumoniae K-1966; assay: as above; type: in vivo, ddY strain mice; settings: K1966, po; Klebsiella pneumoniae K-1966, 3 × 10^3 per mouse; one dose per os 2 h after infection
Experimental: as §1

Proteus mirabilis 181 [4] = assay: as above; type: in vivo, ddY strain mice; settings: po; Proteus mirabilis 181, 2 × 10^7 per mouse; one dose per os 2 h after infection
Experimental: as §1

[5] = test system: Pseudomonas aeruginosa E-2; assay: as above; type: in vivo, ddY strain mice; settings: E2, po; Pseudomonas aeruginosa E-2, 2 × 10^5 per mouse; one dose per os 2 h after infection; Behrens-Karber
Experimental: as §1

Serracia marcescens T-55 = assay: as above; type: in vivo, ddY strain mice; settings: po; Serracia marcescens T-55, 5 × 10^6 per mouse; one dose per os 2 h after infection
Experimental: as §1

[6] = test system: Staphylococcus aureus Smith; assay: as above; type: in vivo, ddY strain mice; settings: po, 3 × 10^6 per mouse, one dose per os 2 h after infection
Experimental: as §1

[7] = test system: Pseudomonas aeruginosa E-2; assay: Ascending urinary tract infection; type: in vivo, ICR female mice
Experimental: ICR Female mice (body weight 20±1 grams) of SPE strain were used in the experiments. The mice were not given any water for seventeen hours, then compulsorily urinated, anesthesized by the administration of 60 mg/kg of pentobarbital into the abdominal cavity, then 1.5×10^5 of Pseudomonas aeruginosa E-2 strain were impregnated into the bladder via the urinary tract, and the external urinary meatus was stopped for four hours by a pin clip, whereupon the mice were infected in the ascending urinary tract.
The compound of Example 22b was given once orally, 4 hours after infection, then twice a day, and the administration was continued for three days. On the fourth day, the kidney was isolated, homogenized in a physiological saline solution, and the number of bacteria was calculated on suitable medium such as, for example, Drigalski medium. If the number of bacteria per one gram of kidney was less than […], then the compound was judged as "effective".

[8] = Blood serum concentration, disc method; type: in vivo, ddY strain mice; settings: mouse, serum, po, 60 mg/kg per os, average ± standard error
Experimental: In this experiment, ddY strain mice (male; body weight 30±2 grams) were used. Sixty mg/kg of the compound of Example 22b were given per os. The blood concentration was calculated from calibration curves obtained by the disc method using Escherichia coli NIHJ strain as tested bacteria and diluting the test compound of mice serum.

[9] = Excretion into urine and recovery, disc method; type: in vivo, ddY strain mice; settings: 60 mg/kg per os, average ± standard error
Experimental: In the measurement of excretion into urine, ddY strain mice (male; body weights 30±2 grams) were used. Sixty mg/kg of the compound of Example 22b was administered per os and the mice were fed in metabolic cages and their urine was collected.
Therefore, in the quantitative determination, the calibration curve of the compound of Example 21, calculated by the disc method using Escherichia coli NIHJ strain and using the compound dissolved in phosphoric acid buffer (pH 8.0; 1/15M) was used. Table 5 reports the excretion into urine with respect to time, total recovery amount and recovery rate of the compound of Example 22b.

[10] = test system: Bacillus subtilis ATCC 6633; assay: Minimum growth inhibiting concentration, Japan Chemotherapeutic Society method; type: cell-based; settings: ATCC6633; Bacillus subtilis ATCC 6633, Gram +; 5% horse blood added agar medium; read-out: Minimum Growth Inhibiting Concn
Experimental: (§2) The Antibacterial activity of the compounds of Examples 14, 13, 22b, 21 and 15 was determined in accordance with the method of Japan Chemotherapeutic Society (cf. Nippon Kagaku Ryoho Gakkai Shi, volume 29, number 1, pages 76 to 79, 1981) and the results are reported in Table 1, which follows. | *5% Horse blood added agar medium for sensitivity measurement being used.

[11] = test system: Streptococcus pneumoniae Type I; assay: as above; type: cell-based; settings: Gram +, 5% horse blood added agar medium, read-out: Minimum Growth Inhibiting Concn
Experimental: as §2

[12] = test system: Streptococcus pyogenes S-23; assay: as above; type: cell-based; settings: S23; Streptococcus pyogenes S-23, Gram +; 5% horse blood added agar medium; read-out: Minimum Growth Inhibiting Concn
Experimental: as §2

[13] = test system: Acinetobacter calcoacelicus 54; assay: as above; type: cell-based; settings: Acinetobacter calcoacelicus 54, Gram -; read-out: Minimum Growth Inhibiting Concn
Experimental: (§3) The Antibacterial activity of the compounds of Examples 14, 13, 22b, 21 and 15 was determined in accordance with the method of Japan Chemotherapeutic Society (cf. Nippon Kagaku Ryoho Gakkai Shi, volume 29, number 1, pages 76 to 79, 1981) and the results are reported in Table 1, which follows.

[14] = test system: Alcaligenes faecalis ATCC 8750; assay: as above; type: cell-based; settings: ATCC8750; Alcaligenes faecalis ATCC 8750, Gram -; read-out: Minimum Growth Inhibiting Concn
Experimental: as §3

Escherichia coli KC-14 [15] = assay: as above; type: cell-based; settings: KC14; Escherichia coli KC-14, Gram -; read-out: Minimum Growth Inhibiting Concn
Experimental: as §3

[16] = test system: Escherichia coli NIHJ JC-2; assay: as above; type: cell-based; settings: NIHJJC2; Escherichia coli NIHJ JC-2, Gram -; read-out: Minimum Growth Inhibiting Concn
Experimental: as §3

[17] = test system: Klebsiella pneumoniae K-1966; assay: as above; type: cell-based; settings: K1966; Klebsiella pneumoniae K-1966, Gram -; read-out: Minimum Growth Inhibiting Concn
Experimental: as §3

[18] = test system: Listeria monocytogenes RIMD 1205020; assay: as above; type: cell-based; settings: RIMD1205020; Listeria monocytogenes RIMD 1205020, Gram +; read-out: Minimum Growth Inhibiting Concn
Experimental: as §3

[19] = test system: Micrococcus luteus ATCC 9341; assay: as above; type: cell-based; settings: ATCC9341; Micrococcus luteus ATCC 9341, Gram +; read-out: Minimum Growth Inhibiting Concn
Experimental: as §3

Proteus mirabilis 181 [20] = assay: as above; type: cell-based; settings: Proteus mirabilis 181, Gram -; read-out: Minimum Growth Inhibiting Concn
Experimental: as §3

Proteus vulgaris DX-19 = assay: as above; type: cell-based; settings: DX19; Proteus vulgaris DX-19, Gram -; read-out: Minimum Growth Inhibiting Concn
Experimental: as §3

[21] = test system: Pseudomonas aeruginosa E-2; assay: as above; type: cell-based; settings: E2; Pseudomonas aeruginosa E-2, Gram -; read-out: Minimum Growth Inhibiting Concn
Experimental: as §3

[22] = test system: Pseudomonas aeruginosa No. 12; assay: as above; type: cell-based; settings: Pseudomonas aeruginosa No. 12, Gram -; read-out: Minimum Growth Inhibiting Concn
Experimental: as §3

[23] = test system: Pseudomonas cepacia ATCC 25416; assay: as above; type: cell-based; settings: Burkholderia cepacia, ATCC25416; Pseudomonas cepacia ATCC 25416, Gram -; read-out: Minimum Growth Inhibiting Concn
Experimental: as §3

[24] = test system: Pseudomonas maltophilia ATCC 13637; assay: as above; type: cell-based; settings: Stenotrophomonas maltophilia, ATCC13637; Pseudomonas maltophilia ATCC 13637, Gram -; read-out: Minimum Growth Inhibiting Concn
Experimental: as §3

[25] = test system: Serracia marcescens IFO 3736; assay: as above; type: cell-based; settings: Serracia marcescens IFO 3736, Gram -; read-out: Minimum Growth Inhibiting Concn
Experimental: as §3

[26] = test system: Staphylococcus aureus 209-PJC; assay: as above; type: cell-based; settings: Gram +, read-out: Minimum Growth Inhibiting Concn
Experimental: as §3

[27] = test system: Staphylococcus aureus Smith; assay: as above; type: cell-based; settings: Gram +, read-out: Minimum Growth Inhibiting Concn
Experimental: as §3

Acute toxicity = settings: mouse, in vivo; oral, groups of ten ddY male mice; read-out: 50% Lethal Doses (LD50)
Experimental: Groups of ten ddY strain male mice (body weights: 20±1 grams) of the test compound were orally administered to determine the LD50. There was […] in which many mice died when the dose was 2000 mg/kg or less.

Work on `CCn1cc(C(=O)O)c(=O)c2cc(F)c(N3CCNCC3)cc21` [Comparison Compd., 1-ethyl-6-fluoro-7-(1-piperazinyl)-4-oxo-1,4-dihydroquinoline-3-carboxylicacid, reference compound] yielded an ED50 [1] greater than 35 mg/kg, an ED50 (Escherichia coli KC-14 [2]) of 3.3 mg/kg and an ED50 [3] greater than 13 mg/kg. For the same compound, the ED50 (Proteus mirabilis 181 [4]) was 29 mg/kg, the ED50 [5] was 260 mg/kg and the ED50 (Serracia marcescens T-55) was 6 mg/kg. For the same compound, the ED50 [6] was greater than 25 mg/kg, the “Number Of Mice Where Compound Was Effective/Total Mice Tested” value ([7]; 3.13 mg/kg oral) was 0/7 and the “Number Of Mice Where Compound Was Effective/Total Mice Tested” value ([7]; 6.25 mg/kg oral) was 0/7. The “Number Of Mice Where Compound Was Effective/Total Mice Tested” value ([7]; 12.5 mg/kg oral) was 0/7, the “Number Of Mice Where Compound Was Effective/Total Mice Tested” value ([7]; 25 mg/kg oral) was 1/7 and the “Number Of Mice Where Compound Was Effective/Total Mice Tested” value ([7]; 50 mg/kg oral) was 4/7. The “Number Of Mice Where Compound Was Effective/Total Mice Tested” value ([7]; 100 mg/kg oral, 4 h after infection then twice a day, three days) was 6/7, the ED50 ([7]; Pseudomonas aeruginosa, E2, in Mus musculus, 72 h, ascending urinary tract infection, oral, three days, read-out: 50% Effective Dose) was 58 mg/kg and the concentration at 0.25 h ([8]; 0.25 hours) was 640 ± 90 ng/mL. It also gave a concentration at 0.5 h ([8]; 0.5 hours) of 900 ± 290 ng/mL, a concentration at 1 h ([8]; 1 hour) of 580 ± 100 ng/mL and a concentration at 2 h ([8]; 2 hours) of 330 ± 150 ng/mL. For the same compound, the concentration at 4 h ([8]; 4 hours) was 90 ± 10 ng/mL, the “Amount excreted into Urine” value ([9]; 0-3 hrs) was 60.25 ± 17.9 µg and the “Amount excreted into Urine” value ([9]; 3-6 hrs) was 29.25 ± 9.0 µg. The “Amount excreted into Urine” value ([9]; 6-24 hrs) was 19.78 ± 6.6 µg.

With `O=C(O)c1c(=O)c2cc(F)c(N3CCNCC3)cc2n2ccsc12` [Example 13, 7-fluoro-5-oxo-8(1-piperazinyl)-5H-thiazolo(3,2-a)quinoline-4-carboxylic acid] the MIC [10] was 0.0063 µg/mL (≈ 0.0181 µM), the MIC [11] was 0.1 µg/mL (≈ 0.288 µM) and the MIC [12] was 0.1 µg/mL (≈ 0.288 µM). The MIC [13] was 0.78 µg/mL (≈ 2.25 µM), the MIC [14] was 0.78 µg/mL (≈ 2.25 µM) and the MIC (Escherichia coli KC-14 [15]) was 0.0063 µg/mL (≈ 0.0181 µM). The MIC [16] was 0.05 µg/mL (≈ 0.144 µM), the MIC [17] was 0.025 µg/mL (≈ 0.072 µM) and the MIC [18] was 0.2 µg/mL (≈ 0.576 µM). For the same compound, the MIC [19] was 0.78 µg/mL (≈ 2.25 µM), the MIC (Proteus mirabilis 181 [20]) was 0.0063 µg/mL (≈ 0.0181 µM) and the MIC (Proteus vulgaris DX-19) was 0.013 µg/mL (≈ 0.0374 µM). For the same compound, the MIC [21] was 0.2 µg/mL (≈ 0.576 µM), the MIC [22] was 0.2 µg/mL (≈ 0.576 µM) and the MIC [23] was 0.78 µg/mL (≈ 2.25 µM). The MIC [24] was 0.5 µg/mL (≈ 1.44 µM), the MIC [25] was 0.2 µg/mL (≈ 0.576 µM) and the MIC [26] was 0.025 µg/mL (≈ 0.072 µM). For the same compound, the MIC [27] was 0.05 µg/mL (≈ 0.144 µM) and the LD50 (Acute toxicity) was greater than 2000 mg/kg.
